How the values were obtained:
BT-474 = details: 72 h
Method in brief: (§1)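 Breast cancer cell lines in 20 µl suspension were added to 384-well plates already holding compound at 5 concentrations, spaced in 10-fold steps across a compound-specific 10,000-fold range, and incubated for 72 h. CellTox Green fluorescence (485/520 nm) was read first to measure cell death, followed by CellTiter-Glo luminescence for viability after 10 min at room temperature. Each plate was normalised to 0.1 % DMSO and a positive kill control. EC50 values came from dose-response curve fits and were censored at the top concentration.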

HCC1937 [1] = test: normalised viability (% of control), CellTiter-Blue; higher = more viable cells (about 100 = DMSO control); details: incubation time: 72 h
Method in brief: (§2)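 Seeded at 20 µl suspension per well onto compound-loaded 384-well plates, breast cancer cell lines were incubated 72 h. CellTiter-Blue fluorescence at 560/590 nm was then read, with each plate normalised to vehicle (100) and a positive kill control (0). Normalised viability is reported at a single listed concentration of the series.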

HCC1143 [2] = test: as above; details: incubation time: 72 h
Method in brief: as §2

SK-BR-3 [3] = test: as above; details: incubation time: 72 h
Method in brief: as §2

HCC1599 [4] = test: as above; details: incubation time: 72 h
Method in brief: as §2

HCC1937 [5] = details: 72 h
Method in brief: (§3)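 Rows with a drug sensitivity score of zero were dropped, and EC50 was taken from the fitted percent-inhibition dose-response curve, censored at the highest concentration. Data were normalised on each plate to vehicle and a positive kill control and checked by Z'-factor. The assay seeded breast cancer cell lines in 20 µl onto 384-well plates pre-loaded with compound in 5 µl medium for 72 h, then added 2.5 µl CellTiter-Blue for 2 h at 37 °C and read fluorescence at 560/590 nm.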

CAL-120 [6] = details: 72 h
Method in brief: as §1

CAL-85-1 = details: 72 h
Method in brief: as §1

HCC1937 [7] = details: 72 h; remark: listed apart in the source
Method in brief: as §1

CAL-51 = details: 72 h
Method in brief: as §1

MDA-MB-231 [8] = details: 72 h
Method in brief: as §1

MDA-MB-436 [9] = details: 72 h
Method in brief: as §1

DU-4475 = details: 72 h
Method in brief: as §1

Hs578T [10] = details: 72 h
Method in brief: as §1

MDA-MB-468 [11] = details: 72 h
Method in brief: as §1

SK-BR-3 [12] = details: 72 h
Method in brief: as §1

HCC1599 [13] = details: 72 h
Method in brief: as §1

HCC1143 [14] = details: 72 h
Method in brief: as §3

MDA-MB-231 [15] = details: 72 h; remark: listed apart in the source
Method in brief: as §3

MDA-MB-436 [16] = details: 72 h; remark: listed apart in the source
Method in brief: as §3

CAL-120 [17] = details: 72 h; remark: listed apart in the source
Method in brief: as §3

Hs578T [18] = details: 72 h; remark: listed apart in the source
Method in brief: as §3

MDA-MB-468 [19] = details: 72 h; remark: listed apart in the source
Method in brief: as §3

SK-BR-3 [20] = details: 72 h; remark: listed apart in the source
Method in brief: as §3

HCC1599 [21] = details: 72 h; remark: listed apart in the source
Method in brief: as §3

BT-549 [22] = details: 72 h
Method in brief: as §3

BT-549 [23] = details: 72 h; remark: listed apart in the source
Method in brief: as §1

MFM-223 = details: 72 h
Method in brief: as §3

SMILES | EC50, CellTiter-Glo (BT-474) | normalised viability (HCC1937 [1]; 10000 nM) | normalised viability (HCC1143 [2]; 10000 nM) | normalised viability (SK-BR-3 [3]; 10000 nM) | normalised viability (HCC1599 [4]; 10000 nM) | EC50, CellTiter-Blue viability (HCC1937 [5]) | normalised viability (HCC1937 [1]; 10 nM) | normalised viability (HCC1937 [1]; 1000 nM) | normalised viability (HCC1143 [2]; 10 nM) | normalised viability (HCC1143 [2]; 1000 nM) | normalised viability (SK-BR-3 [3]; 10 nM) | normalised viability (SK-BR-3 [3]; 1000 nM) | normalised viability (HCC1599 [4]; 10 nM) | normalised viability (HCC1599 [4]; 1000 nM) | EC50, CellTiter-Glo (CAL-85-1) | EC50, CellTiter-Blue viability (MDA-MB-231 [15]) | EC50, CellTiter-Blue viability (MDA-MB-436 [16]) | EC50, CellTiter-Blue viability (MDA-MB-468 [19]) | EC50, CellTiter-Blue viability (SK-BR-3 [20]) | EC50, CellTiter-Blue viability (BT-549 [22]) | other results
CS(=O)(=O)OCCCCOS(C)(=O)=O [Busulfan] | > 100000 nM | 83.1% | 108% | 104% | 75.4% | 77100 nM |  |  |  |  |  |  |  |  |  |  |  |  |  |  | normalised viability (HCC1937 [1]; 100 nM): 86.4%; normalised viability (HCC1937 [1]; 100000 nM): 43.7%; normalised viability (HCC1143 [2]; 100 nM): 104%; normalised viability (HCC1143 [2]; 100000 nM): 108%; normalised viability (SK-BR-3 [3]; 100 nM): 95.1%; normalised viability (SK-BR-3 [3]; 100000 nM): 87.8%; normalised viability (HCC1599 [4]; 100 nM): 90.2%; normalised viability (HCC1599 [4]; 100000 nM): 109%
CN1CCN(c2ccc3nc(-c4c(N)c5c(F)cccc5[nH]c4=O)[nH]c3c2)CC1 [Dovitinib] |  | 76.9% | 69.8% | 72.9% | 89% | 371 nM | 116% | 80.7% | 86.9% | 87.9% | 84.8% | 94.8% | 98% | 98.8% |  |  |  |  |  |  | EC50, CellTiter-Glo (CAL-120 [6]): > 10000 nM
O=c1[nH]c(=O)n([C@H]2C[C@H](O)[C@@H](CO)O2)cc1F [Floxuridine] | 555 nM | 42.1% | 61.6% | 24% | 81.9% | 4070 nM | 78.3% | 76% | 97.5% | 91.1% | 94.5% | 44.9% | 86.9% | 91.8% | 79.5 nM | 494 nM | 182 nM | 48.9 nM | 60.3 nM | 804 nM | EC50, CellTiter-Glo (HCC1937 [7]): 211 nM; EC50, CellTiter-Glo (CAL-51): 80.3 nM; EC50, CellTiter-Glo (MDA-MB-231 [8]): 687 nM; EC50, CellTiter-Glo (MDA-MB-436 [9]): 57.7 nM; EC50, CellTiter-Glo (CAL-120 [6]): 420 nM; EC50, CellTiter-Glo (DU-4475): 1580 nM; EC50, CellTiter-Glo (Hs578T [10]): 34 nM; EC50, CellTiter-Glo (MDA-MB-468 [11]): 240 nM; EC50, CellTiter-Glo (SK-BR-3 [12]): 96.6 nM; EC50, CellTiter-Glo (HCC1599 [13]): 27 nM; EC50, CellTiter-Blue viability (HCC1143 [14]): 1630 nM; EC50, CellTiter-Blue viability (CAL-120 [17]): 118 nM; EC50, CellTiter-Blue viability (Hs578T [18]): 501 nM; EC50, CellTiter-Blue viability (HCC1599 [21]): > 10000 nM
O=c1[nH]cc(F)c(=O)[nH]1 [Fluorouracil] |  | 75.3% | 64.9% | 43.1% | 76.9% |  | 90.6% | 112% | 99.5% | 91% | 108% | 62.4% | 102% | 96.1% | 272 nM | 2880 nM | 7520 nM | > 10000 nM | 532 nM | 1240 nM | EC50, CellTiter-Glo (MDA-MB-436 [9]): 425 nM; EC50, CellTiter-Glo (SK-BR-3 [12]): 556 nM; EC50, CellTiter-Blue viability (CAL-120 [17]): 2530 nM; EC50, CellTiter-Blue viability (HCC1599 [21]): 2520 nM
C[C@@H]1C=C2C(=O)O[C@@H]3CC[C@H](C1)[C@]23O [Galiellalactone] |  |  |  |  |  | 16400 nM |  |  |  |  |  |  |  |  | 10500 nM | 7150 nM | 14700 nM | 7120 nM | 12600 nM | 5580 nM | EC50, CellTiter-Glo (CAL-51): 2320 nM; EC50, CellTiter-Glo (MDA-MB-468 [11]): 7120 nM; EC50, CellTiter-Glo (BT-549 [23]): 17700 nM; normalised viability (HCC1937 [1]; 50 nM): 132%; normalised viability (HCC1937 [1]; 5000 nM): 79.4%; normalised viability (HCC1937 [1]; 50000 nM): 22.8%; normalised viability (HCC1143 [2]; 50 nM): 90.8%; normalised viability (HCC1143 [2]; 5000 nM): 104%; normalised viability (HCC1143 [2]; 50000 nM): 86.9%; normalised viability (SK-BR-3 [3]; 50 nM): 105%; normalised viability (SK-BR-3 [3]; 5000 nM): 85.2%; normalised viability (SK-BR-3 [3]; 50000 nM): 6.84%; normalised viability (HCC1599 [4]; 50 nM): 95.2%; normalised viability (HCC1599 [4]; 5000 nM): 89.8%; normalised viability (HCC1599 [4]; 50000 nM): 67.5%; EC50, CellTiter-Blue viability (Hs578T [18]): 44600 nM; EC50, CellTiter-Blue viability (MFM-223): 38200 nM
